Article PMC9965125, “New NSAID Conjugates as Potent and Selective COX-2 Inhibitors: Synthesis, Molecular Modeling and Biological Investigation” (Molecules, 2023)

Experiments:
[1] = test system: hot plate latency; test: hot plate assay (central analgesic); type: in vivo, mice; settings: for % Protection / Latency Period ± SE: 10 mg/kg indomethacin mol equivalent i.p.; for Latency Period ± SE: cutoff 15 sec; for Potency: at 120 min compared to indomethacin
Protocol: The % potency was calculated by equ. (4) (Table 2). […]
% Potency = % protection of the tested compound x 100 ……. (4) […]
Central analgesic (hot plate) testing
The standard hot plate technique was undertaken by in vivo standard hot plate test [ 1,2]. […]
by placing them on a hot plate maintained at 55 ± 1 °C, 30 min. […]
suspended in sterile/distilled water by the ai d of two drops of Tween 80, and recording the reaction time in seconds for forepaw licking or jumping. The control group animals were given sterile/distilled water only with few drops of Tween 80. The maximum cutoff time was chosen as 15 sec. to prevent tissue damage. Response latencies were measured 30, 60, 90 and 120 min. after the application. The % protection was calculated by equ. ( 5) where, T1, T0 are the latency time mean of the tested compound and control group, respectively (Table 3).

[2] = test system: carrageenan induced paw edema; test: carrageenan-induced rat paw edema; type: in vivo; settings: for % Potency: % inhibition of edema thickness relative to indomethacin at 3 h
Protocol: Anti-inflammatory activity screening
The anti-inflammatory activity of the tested compounds was determined in-vivo by the acute carrageenan induced paw edema standard method in rats. Adult Wister rats of either sex (pregnant female animals were excluded) weighing 120–150 g were divided into 19 groups of 6 animals each. The tested compounds dissolved in DMSO, at a dose of 10 mg kg-1 (rat body […]
inflammation. The control group was given DMSO only. Paw edema was induced by subcutaneous injection of freshly prepared 1% solution of carrageenan in saline (0.9%, 0.1 ml per rat) into subplantar tissue of the right hind paw of rats. The thickness of the paw was measured (in mm) after successive time intervals (1, 2, 3, 4 and 24 h) and compared with the initial hind paw thickness of each rat for determining the edema thickness. Data were collected, checked, revised and analyzed (SPSS 16). Quantitative variables from normal distribution were expressed as means ± SE “standard error”. The anti-inflammatory activity was expressed as percentage inhibition of edema thickness in treated animals in comparison with the control group according to eqn. (1) […]
% Inhibition of edema= Vc-Vt x 100 … .. (1)
Where, Vc and Vt are the means of edema paw thickness for the control and tested compound treated animal groups, respectively.
The potency of the tested compounds was expressed as % inhibition of edema thickness […]
% Potency = % inhibition of edema for the tested compound treated group x 100 … . (2)

[3] = test system: acetic acid-induced abdominal writhing; test: acetic acid-induced abdominal writhing assay (peripheral analgesic); type: in vivo, mice; settings: for % Inhibition/Protection / Writing Reflex ± SE: 10 mg/kg indomethacin mol equivalent i.p.; for Potency: % inhibition/protection compared to indomethacin; for Writing Reflex ± SE: number of writhing counted for 30 min
Protocol: Peripheral analgesic testing
Peripheral analgesic activity was measured by the standard acetic acid-induced writhing […]
One hour after intraperitoneally (i,p.) administration of 10 mg kg−1 (mice body weight) […]
distilled/sterile water by the aid of two drops of Tween 80, each mouse was injected with 0.1 ml of 1% acetic acid solution i.p. The control group animals were given sterile/distilled water only with few drops of Tween 80. Starting 5 min after the acetic acid injection, the number of muscular contractions in each mouse was counted for 30 min. A significant reduction in the number of writhing by any test compound as compared to control animals was considered as a positive analgesic response. Percentage protection was calculated according to equ. (3), where n stands for the average number of writhing in the control group and n' is the average number of writhing in the treated group. The % potency was calculated by equ. (4) (Table 2).
% Inhibition/protection = n−n′ x100 … . (3)

[4] = test system: gastric mucosa; settings: both, albino, mouse, in vivo, po, 10 mg/kg, 3 days
Protocol: The ulcerogenic liability was determined in albino mice obeying the standard method.
Animals of either sex (pregnant females were excluded) weighing 20 –25 g were divided into 8 groups of 6 animals each. The animals fasted 18 h before drug administration.
80 administered orally for three successive days to fasted animals at a dose of 10 mg kg-1 (animal […]
The control group animals were given water only with few drops of Tween 80. The animals were sacrificed by cervical dislocation and the stomach was removed, opened along the greater curvature and rinsed with saline. The gastric mucosa was examined with a magnifying lens (10x) for the presence of lesions and ero sions. The ulcer index was calculated (Table 4) and the degree of ulcerogenic effect was expressed in terms of.
1. The percentage incidence of ulcers divided by 10.
2. Average number of ulcers per stomach.
3. Average severity of ulcers.
The ulcer index is the value that resulted from the sum of the above three values. […]

[5] = 1 h, 10 mg/kg indomethacin mol equivalent i.p.
[6] = 2 h, 10 mg/kg indomethacin mol equivalent i.p.
[7] = 4 h, 10 mg/kg indomethacin mol equivalent i.p.
[8] = 24 h, 10 mg/kg indomethacin mol equivalent i.p.
[9] = 24 h, 10 mg/kg indomethacin mol equivalent i.p., 10 mg/kg

In the case of `COc1ccc2c(c1)c(CC(=O)OCc1cn(-c3ccccc3OC)nn1)c(C)n2C(=O)c1ccc(Cl)cc1` [Compound 8e, (1-(2-Methoxyphenyl)-1H-1,2,3-triazol-4-yl)methyl 2-(1-(4-chlorobenzoyl)-5-methoxy-2-methyl-1H-indol-3-yl)acetate], the “% Protection” value ([1]; after 30 min) is reported as 69.2%, the “Latency Period ± SE” value ([1]; after 30 min) is reported as 11.30 ± 1.1 s and the “% Protection” value ([1]; after 60 min) is reported as 82.0%. The “Latency Period ± SE” value ([1]; after 60 min) was 13.23 ± 1.6 s, the “% Protection” value ([1]; after 90 min) was 27.5% and the “Latency Period ± SE” value ([1]; after 90 min) was 11.36 ± 2.5 s. For the same compound, the “% Protection” value ([1]; after 120 min) was 28.9%, the “Latency Period ± SE” value ([1]; after 120 min) was 11.61 ± 2.2 s and the Potency [1] was 51.2. For the same compound, the “% Inhibition of Edema ± Standard Error” value [2, 5] was 0.00 ± 0.2%, the “% Inhibition of Edema ± Standard Error” value [2, 6] was 6.5 ± 1.0% and the “% Inhibition of Edema ± Standard Error” value [2, 7] was 4.2 ± 1.9%. For the same compound, the “% Inhibition of Edema ± Standard Error” value [2, 8] was 0.00 ± 0.3%, the “% Inhibition/Protection” value [3] was 80.8% and the Potency [3] was 112.5%. The “Writing Reflex ± SE” value [3] was 7.7 ± 1.3.

With `COc1ccc(-n2cc(COC(=O)Cc3c(C)n(C(=O)c4ccc(Cl)cc4)c4ccc(OC)cc34)nn2)cc1` [Compound 8f, (1-(4-Methoxyphenyl)-1H-1,2,3-triazol-4-yl)methyl 2-(1-(4-chlorobenzoyl)-5-methoxy-2-methyl-1H-indol-3-yl)acetate] the “% Protection” value ([1]; after 30 min) was 66.3%, the “Latency Period ± SE” value ([1]; after 30 min) was 11.11 ± 1.6 s and the “% Protection” value ([1]; after 60 min) was 92.4%. For the same compound, the “Latency Period ± SE” value ([1]; after 60 min) was 13.99 ± 1.9 s, the “% Protection” value ([1]; after 90 min) was 68.4% and the “Latency Period ± SE” value ([1]; after 90 min) was 15.00 ± 2.5 s. The “% Protection” value ([1]; after 120 min) was 66.5%, the “Latency Period ± SE” value ([1]; after 120 min) was 15.00 ± 2.6 s and the Potency [1] was 117.7. The “anti-inflammatory efficacy (in words)” value ([2]; carrageenan-induced rat paw edema) was “no anti-inflammatory efficacy”, the “% Inhibition/Protection” value [3] was 66.8% and the Potency [3] was 93.0%. For the same compound, the “Writing Reflex ± SE” value [3] was 13.3 ± 1.9.

In the case of `COc1ccc2c(c1)c(CC(=O)OCc1cn(-c3ccc([N+](=O)[O-])cc3)nn1)c(C)n2C(=O)c1ccc(Cl)cc1` [Compound 8g, (1-(4-Nitrophenyl)-1H-1,2,3-triazol-4-yl)methyl 2-(1-(4-chlorobenzoyl)-5-methoxy-2-methyl-1H-indol-3-yl)acetate], the “% Protection” value ([1]; after 30 min) is reported as 56.6%, the “Latency Period ± SE” value ([1]; after 30 min) is reported as 10.46 ± 2.4 s and the “% Protection” value ([1]; after 60 min) is reported as 45.4%. The “Latency Period ± SE” value ([1]; after 60 min) was 10.57 ± 2.7 s, the “% Protection” value ([1]; after 90 min) was 41.2% and the “Latency Period ± SE” value ([1]; after 90 min) was 12.58 ± 2.0 s. For the same compound, the “% Protection” value ([1]; after 120 min) was 2.7%, the “Latency Period ± SE” value ([1]; after 120 min) was 9.25 ± 2.3 s and the Potency [1] was 4.8. The “% Inhibition of Edema ± Standard Error” value [2, 5] was 20.0 ± 0.7%, the “% Inhibition of Edema ± Standard Error” value [2, 8] was 0.00 ± 1.2% and the “% Inhibition/Protection” value [3] was 96.3%. The Potency [3] was 134.1% and the “Writing Reflex ± SE” value [3] was 1.5 ± 0.4.

With `CC(C)Cc1ccc(C(C)C(=O)O)cc1` (stereo not drawn) [Ibu, Ibuprofen, reference compound] the “% Protection” value ([1]; after 30 min) was 61.7%, the “Latency Period ± SE” value ([1]; after 30 min) was 10.80 ± 0.8 s and the “% Protection” value ([1]; after 60 min) was 51.3%. For the same compound, the “Latency Period ± SE” value ([1]; after 60 min) was 11.00 ± 1.3 s, the “% Protection” value ([1]; after 90 min) was 33.6% and the “Latency Period ± SE” value ([1]; after 90 min) was 11.90 ± 1.5 s. For the same compound, the “% Protection” value ([1]; after 120 min) was 54.3%, the “Latency Period ± SE” value ([1]; after 120 min) was 13.90 ± 2.2 s and the Potency [1] was 96.1. For the same compound, the “% Inhibition of Edema ± Standard Error” value [2, 5] was 44.4 ± 2.5%, the “% Inhibition of Edema ± Standard Error” value [2, 6] was 43.5 ± 2.9% and the “% Inhibition of Edema ± Standard Error” value ([2]; 3 h, 10 mg/kg indomethacin mol equivalent i.p.) was 78.8 ± 0.9%. The “% Inhibition of Edema ± Standard Error” value [2, 7] was 21.0 ± 1.1%, the “% Inhibition of Edema ± Standard Error” value [2, 9] was 11.2 ± 0.6% and the “% Inhibition of Edema ± Standard Error” value ([2]; 24 h, 10 mg/kg indomethacin mol equivalent i.p., listed as ibuprofen, 10 mg/kg) was 11.2%. For the same compound, the “Mean Edema Thickness” value ([2]; 24 h, 10 mg/kg indomethacin mol equivalent i.p., ± standard error) was 0.817 ± 0.07 mm, the “% Potency” value [2] was 97.2% and the “% Inhibition/Protection” value [3] was 58.5%. For the same compound, the Potency [3] was 81.5%, the “Writing Reflex ± SE” value [3] was 16.6 ± 0.7 and the “% Incidence of Ulcer Divided by 10” value [4] was 3.33. The “Average Severity of Ulcer” value [4] was 0.67, the “Average of Ulcer Number” value [4] was 0.33 and the “Number of Animals with Ulcer” value [4] was 2/6.

`COc1ccc2c(c1)c(CC(=O)O)c(C)n2C(=O)c1ccc(Cl)cc1` [Indo, Indomethacin, reference compound] was tested, and the “% Protection” value ([1]; after 30 min) was 87.1%, the “Latency Period ± SE” value ([1]; after 30 min) was 12.50 ± 2.0 s and the “% Protection” value ([1]; after 60 min) was 80.9%. The “Latency Period ± SE” value ([1]; after 60 min) was 13.15 ± 1.6 s, the “% Protection” value ([1]; after 90 min) was 57.9% and the “Latency Period ± SE” value ([1]; after 90 min) was 14.07 ± 1.2 s. The “% Protection” value ([1]; after 120 min) was 56.5%, the “Latency Period ± SE” value ([1]; after 120 min) was 14.10 ± 1.9 s and the Potency [1] was 100. For the same compound, the “% Inhibition of Edema ± Standard Error” value [2, 9] was 12.0 ± 2.1%, the “% Inhibition of Edema ± Standard Error” value ([2]; 24 h, 10 mg/kg indomethacin mol equivalent i.p., listed as indomethacin, 10 mg/kg) was 12.0% and the “% Potency” value [2] was 100%. For the same compound, the “% Inhibition/Protection” value [3] was 71.8%, the Potency [3] was 100.0% and the Potency ([3]; listed as indomethacin) was 100%. For the same compound, the “Writing Reflex ± SE” value [3] was 11.3 ± 1.6, the “% Incidence of Ulcer Divided by 10” value [4] was 10 and the “Average Severity of Ulcer” value [4] was 1.67. For the same compound, the “Average of Ulcer Number” value [4] was 2 and the “Number of Animals with Ulcer” value [4] was 6/6.
